# Values quoted from earlier work in patent US11147946B2, “Venous access catheters and methods for portal venous system catheterization” (THE REGENTS OF THE UNIVERSITY OF COLORADO, A BODY CORPORATE, priority 2014, dated 2021).
# Numbered stars: 1 amine (or outer) side, 2 acyl side, 3 side chain; on linkers, the order of the positions; unused ones are H or OH. Square brackets hold non-standard residues; d marks the D form. Side chains are listed from the residue outwards. Peptide text beside a SMILES is read from it. * marks the point of attachment. Ethylenediamine = C(CN[*:2])N[*:1]; Hyp = O=C(O)[C@@H]1C[C@@H](O)CN1; Phg = N[C@H](C(=O)O)c1ccccc1; CO = O=C([*:1])[*:2]; Bn = c1ccc(C*)cc1
# Columns and labels:
# SSTR2 = SSTR2 (Homo sapiens, UniProt P30874)
# Sequence of SSTR2 (P30874 whole entry): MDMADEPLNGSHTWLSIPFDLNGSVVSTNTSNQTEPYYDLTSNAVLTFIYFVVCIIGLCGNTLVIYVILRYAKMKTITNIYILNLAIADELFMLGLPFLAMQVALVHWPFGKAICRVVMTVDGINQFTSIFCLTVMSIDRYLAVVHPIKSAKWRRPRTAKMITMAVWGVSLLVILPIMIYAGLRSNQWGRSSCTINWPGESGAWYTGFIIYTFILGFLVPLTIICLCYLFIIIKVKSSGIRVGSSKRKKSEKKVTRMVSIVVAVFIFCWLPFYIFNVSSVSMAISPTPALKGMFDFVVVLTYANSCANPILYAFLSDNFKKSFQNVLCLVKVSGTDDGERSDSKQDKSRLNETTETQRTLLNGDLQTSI
# SSTR3 = SSTR3 (Homo sapiens, UniProt P32745)
# Sequence of SSTR3 (P32745 whole entry): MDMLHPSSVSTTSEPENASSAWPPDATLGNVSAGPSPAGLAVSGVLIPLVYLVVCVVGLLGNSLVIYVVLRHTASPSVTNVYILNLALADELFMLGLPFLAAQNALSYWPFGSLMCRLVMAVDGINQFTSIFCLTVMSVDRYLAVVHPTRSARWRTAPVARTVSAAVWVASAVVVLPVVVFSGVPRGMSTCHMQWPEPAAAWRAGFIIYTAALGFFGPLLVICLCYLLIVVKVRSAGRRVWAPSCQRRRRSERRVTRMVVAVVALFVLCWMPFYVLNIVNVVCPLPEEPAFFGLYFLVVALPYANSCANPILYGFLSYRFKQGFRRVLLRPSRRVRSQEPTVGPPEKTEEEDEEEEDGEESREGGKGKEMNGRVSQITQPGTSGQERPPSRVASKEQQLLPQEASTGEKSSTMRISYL
# SSTR1 = SSTR1 (Homo sapiens, UniProt P30872)
# Sequence of SSTR1 (P30872 whole entry): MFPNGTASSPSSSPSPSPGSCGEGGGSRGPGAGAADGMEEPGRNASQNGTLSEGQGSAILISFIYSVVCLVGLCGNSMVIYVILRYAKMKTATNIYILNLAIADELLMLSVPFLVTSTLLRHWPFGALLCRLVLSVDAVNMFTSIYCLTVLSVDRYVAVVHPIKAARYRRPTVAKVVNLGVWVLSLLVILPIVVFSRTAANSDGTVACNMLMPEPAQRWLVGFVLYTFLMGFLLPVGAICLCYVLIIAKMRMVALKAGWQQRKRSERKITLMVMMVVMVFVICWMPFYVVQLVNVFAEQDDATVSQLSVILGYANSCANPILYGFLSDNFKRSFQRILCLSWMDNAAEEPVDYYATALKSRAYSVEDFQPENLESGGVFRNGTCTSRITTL
# SSTR5 = SSTR5 (Homo sapiens, UniProt P35346)
# Sequence of SSTR5 (P35346 whole entry): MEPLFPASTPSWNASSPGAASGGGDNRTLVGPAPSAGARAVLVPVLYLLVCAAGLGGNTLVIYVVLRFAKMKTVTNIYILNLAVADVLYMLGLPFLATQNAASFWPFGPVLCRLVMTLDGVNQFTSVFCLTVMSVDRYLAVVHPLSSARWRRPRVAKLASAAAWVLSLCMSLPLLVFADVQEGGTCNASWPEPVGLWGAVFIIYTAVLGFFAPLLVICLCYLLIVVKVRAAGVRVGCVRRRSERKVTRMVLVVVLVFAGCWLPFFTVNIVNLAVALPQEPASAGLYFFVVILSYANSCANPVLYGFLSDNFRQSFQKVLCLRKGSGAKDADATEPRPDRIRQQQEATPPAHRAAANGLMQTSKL
# SSTR4 = SSTR4 (Homo sapiens, UniProt P31391)
# Sequence of SSTR4 (P31391 whole entry): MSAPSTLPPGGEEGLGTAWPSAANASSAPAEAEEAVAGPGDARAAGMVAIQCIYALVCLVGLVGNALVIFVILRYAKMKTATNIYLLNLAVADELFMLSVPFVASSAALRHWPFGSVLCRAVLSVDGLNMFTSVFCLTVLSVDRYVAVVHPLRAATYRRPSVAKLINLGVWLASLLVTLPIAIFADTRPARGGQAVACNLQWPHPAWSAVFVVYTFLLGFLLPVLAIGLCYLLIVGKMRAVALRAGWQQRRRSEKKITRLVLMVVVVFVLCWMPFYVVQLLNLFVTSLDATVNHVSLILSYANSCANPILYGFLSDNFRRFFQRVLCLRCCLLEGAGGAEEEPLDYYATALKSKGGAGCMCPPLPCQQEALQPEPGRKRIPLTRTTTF
# portal hypertension = conditions: compared with propranolol, cirrhosis
# [1] = system: human colon (Colo205) carcinoma cell line
# human tumour = conditions: in vivo xenograft and orthotopic models
# [2] = system: human breast (MCF7) carcinoma cell line
# [3] = target: (Homo sapiens, UniProt P08069)
# Sequence of (Homo sapiens, UniProt P08069) (P08069 31-736 limits assumed): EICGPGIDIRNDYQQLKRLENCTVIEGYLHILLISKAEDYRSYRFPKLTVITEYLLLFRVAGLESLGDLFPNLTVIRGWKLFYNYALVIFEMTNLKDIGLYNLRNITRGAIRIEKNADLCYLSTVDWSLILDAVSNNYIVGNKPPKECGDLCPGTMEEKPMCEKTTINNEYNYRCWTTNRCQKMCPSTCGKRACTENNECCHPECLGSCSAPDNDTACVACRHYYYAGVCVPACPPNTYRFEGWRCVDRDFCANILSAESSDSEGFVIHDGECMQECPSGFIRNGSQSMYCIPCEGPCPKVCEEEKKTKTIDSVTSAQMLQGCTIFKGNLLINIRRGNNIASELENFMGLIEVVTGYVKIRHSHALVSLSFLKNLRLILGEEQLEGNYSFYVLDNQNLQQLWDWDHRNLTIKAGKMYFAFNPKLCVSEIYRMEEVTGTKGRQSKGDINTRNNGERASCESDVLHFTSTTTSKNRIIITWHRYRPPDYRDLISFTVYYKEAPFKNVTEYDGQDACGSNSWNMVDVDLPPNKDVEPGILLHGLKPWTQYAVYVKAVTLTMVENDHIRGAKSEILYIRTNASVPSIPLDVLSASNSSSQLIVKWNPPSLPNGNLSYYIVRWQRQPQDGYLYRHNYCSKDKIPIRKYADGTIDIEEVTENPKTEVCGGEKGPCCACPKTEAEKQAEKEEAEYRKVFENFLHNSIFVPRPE
# Sequence of (Homo sapiens, UniProt P08069) (P08069 741-1367 limits assumed): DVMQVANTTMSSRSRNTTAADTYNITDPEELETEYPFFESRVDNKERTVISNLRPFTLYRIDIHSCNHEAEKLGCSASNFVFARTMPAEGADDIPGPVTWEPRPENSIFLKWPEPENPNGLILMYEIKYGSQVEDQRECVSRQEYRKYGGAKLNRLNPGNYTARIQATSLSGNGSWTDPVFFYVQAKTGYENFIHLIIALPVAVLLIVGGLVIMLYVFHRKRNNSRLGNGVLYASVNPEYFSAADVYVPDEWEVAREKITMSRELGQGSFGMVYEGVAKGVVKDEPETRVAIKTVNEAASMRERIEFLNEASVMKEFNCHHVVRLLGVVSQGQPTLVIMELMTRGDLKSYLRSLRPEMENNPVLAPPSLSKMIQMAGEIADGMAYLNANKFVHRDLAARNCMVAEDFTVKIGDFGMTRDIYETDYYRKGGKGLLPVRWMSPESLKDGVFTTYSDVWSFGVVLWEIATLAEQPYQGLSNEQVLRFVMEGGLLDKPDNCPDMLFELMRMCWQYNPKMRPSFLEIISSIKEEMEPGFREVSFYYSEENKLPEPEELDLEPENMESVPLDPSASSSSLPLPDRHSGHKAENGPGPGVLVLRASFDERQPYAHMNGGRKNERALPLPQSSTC
# [4] = system: human pancreas (BxPC-3) carcinoma cell line
compound,measurement,setting,value
C[C@@H](O)[C@@H]1NC(=O)[C@H](CCCCN)NC(=O)[C@@H](Cc2c[nH]c3ccccc23)NC(=O)[C@H](Cc2ccccc2)NC(=O)[C@@H](NC(=O)[C@H](N)Cc2ccccc2)CSSC[C@@H](C(=O)N[C@H](CO)[C@@H](C)O)NC1=O [octreotide],binding affinity to SSTR2,SSTR2,high affinity
same,binding affinity to SSTR3,SSTR3,reduced affinity
NCCCC[C@@H]1NC(=O)[C@@H](Cc2c[nH]c3ccccc23)NC(=O)[C@H](c2ccccc2)NC(=O)[C@@H]2C[C@@H](OC(=O)NCCN)CN2C(=O)[C@H](Cc2ccccc2)NC(=O)[C@H](Cc2ccc(OCc3ccccc3)cc2)NC1=O [pasireotide] (cyclo([Hyp]([CO-Ethylenediamine])[Phg][dW]KY(Bn)F)),binding affinity to SSTR2,SSTR2,decreased affinity
same,binding affinity to SSTR3,SSTR3,decreased affinity
same,binding affinity to SSTR1,SSTR1,decreased affinity
same,binding affinity to SSTR5,SSTR5,high affinity
CC(C)[C@@H]1NC(=O)[C@H](CCCCN)NC(=O)[C@@H](Cc2c[nH]c3ccccc23)NC(=O)[C@H](Cc2ccc(O)cc2)NC(=O)[C@@H](NC(=O)[C@H](N)Cc2ccc3ccccc3c2)CSSC[C@@H](C(=O)N[C@H](C(N)=O)[C@@H](C)O)NC1=O [lanreotide],binding affinity to SSTR2,SSTR2,high affinity
same,binding affinity to SSTR3,SSTR3,reduced or no binding
same,binding affinity to SSTR1,SSTR1,reduced or no binding
same,binding affinity to SSTR4,SSTR4,reduced or no binding
COc1ccccc1OCCNCC(O)COc1cccc2[nH]c3ccccc3c12 (stereo not shown) [carvedilol],reduction of portal hypertension (PH),portal hypertension,more effective than propranolol
"IMC-A12: fully human monoclonal IgG1 antibody, anti-IGF1R",cell apoptosis,[1],induces cell apoptosis
same,cell proliferation,[1],inhibits cell proliferation
same,antitumour activity,human tumour,shown activity against a human tumour
same,cell apoptosis,[2],induces cell apoptosis
same,cell proliferation,[2],inhibits cell proliferation
same,binding affinity,[3],high affinity
same,cell apoptosis,[4],induces cell apoptosis
same,cell proliferation,[4],inhibits cell proliferation
